Three compounds from patent US7846910B2, “Pharmaceutical composition, composition for screening therapeutics preventing and treating beta amyloid accumulation in brain comprising GCP II (glutamate carboxypeptidase II) as an active ingredient and method for screening using the same” (Korea Center for Disease Control and Prevention, priority 2005, dated 2010) can be followed below.

The term Km denotes the substrate concentration at which the rate is half of its maximum.

One series addresses T1, GCP-II (Mus musculus, UniProt O35409).
T1 construct: the cell membrane layer existed GCP-II was isolated from the mouse brain tissue; from tissue; host or cells: Brain membrane fraction of wild-type and APP Swedish/presenilin delta-9 transgenic mice
Nature of the series: GCP-II activity in brain tissue of mice treated with GCP-II inhibitor (3H-NAAG). The note with it: 10 mg/kg twice a week, 30 days. The class given is in vivo. As to the method:
(§1) To conform whether GCP-II can actually degrade over-expressing Aβ in vivo, the present inventors investigated Aβ degradation capacity by GCP-II inhibitor in a transgenic mouse over-expressing these Aβ. Concretely, after prepared genetically Aβover-expressing dementia model mouse (APP Swdish/presenilin delta 9 deltion, 12 weeks, The Hackson Laboratory, USA), injected into visceral cavity twice in a week, dosage of 10 mg/kg, 30 days. At this time, PBS used as a control. After finally injected GCP-II inhibitor, cerebral cortex, hippocampus and cerebellum in mouse brain was dissected and measured their weight respectively using microblance. And then, the above tissues were incubated in 6 M guanidine-hydrochrolide solution, room temperature, 4 hours and obtained supernatant by centrifugation after added iced PBS at 1/10 ratio. […] Then treated HRP (horseradish peroxidase) tagging secondly actibody, the above reactant was measured absorbance at 450 nm wavelength after treated stained using TMB (tetramethylbensidine). To conform whether GCP-II inhibitor was treated correctly, a part of the above mouse brain tissue were dissected and detected GCP-II activaty. […] In this manner, isolated sample were measured GCP-II activity using isotope meter.

Another series concerns Aβ40 and Aβ42. In words: Aβ yield in cerebral cortex of mice treated with GCP-II inhibitor (ELISA). The class given is in vivo. The note with it: transgenic mouse (APP Swedish/presenilin delta 9), 10 mg/kg into visceral cavity twice a week, 30 days, PBS control. As to the method: as §1
In general terms: ELISA stands for enzyme-linked immunosorbent assay.

Series [1] has as its system ACTH (adrenocorticotropic hormone). In words: GCP-II substrate specificity, MALDI-TOF molecular weight analysis. The class given is biochemical. The note with it: 37° C. for 15 hours. As to the method: (§2) To investigate whether GCP-II degrades Aβ specifically, GCP-II was reacted with amylin and ACTH (adrenocorticotropic hormone) or insulin β-chain at 37° C. for 15 hours, followed by measuring the molecular weight of each sample with a molecular weight analyzer (FIG. 7).

In a further series the test system is amylin. The series is described as above. The class given is biochemical. Particulars: 37° C. for 15 hours. As to the method:
as §2

The test system of a further series is insulin β-chain. The series is described as above. The class given is biochemical. The note with it: 37° C. for 15 hours. The procedure: as §2
The subject of another series is synthetic Aβ40 or Aβ42. In words: Aβ degradation in HEK293 cells over-expressing GCP-II (ELISA of remaining Aβ in medium). In kind it is cell-based, human. As to the method:
To investigate the Aβ degradation by GCP-II, synthetic Aβ40 (FIG. 1A) or Aβ42 (FIG. 1B) was added to the cell culture solution containing HEK293 cells over-expressing GCP-II and HEK293 cells over-expressing NEP and IDE which are known as Aβ degrading enzymes. After reaction, the level of Aβ in the medium was measured by ELISA.
To measure the level of Aβ degradation by GCP-II, 2 ng/uL of synthetic Aβ40 or Aβ42 (Biosource international INC.) was added to HEK293 cell culture medium. Twenty hours later, the remaining Aβ in the medium was quantified by ELISA kit (Biosource international INC.).
HEK293 cells (human embryonic kidney cells) over-expressing GCP-II were temporarily transfected with GCP-II expression vector ‘pHA-GCPII’ or ‘pmyc-GCPII’ prepared in the above Example <1-1>, by using a transfection reagent (Lipofectamine Plus™ Reagent, Invitrogen, USA). The HEK293 cells with the temporary insertion of GCP-II were cultured in DMEM (Dulbecco's modified Eagle's medium) supplemented with 10% FBS (fetal bovine serum), 100 IU/ml of penicillin and 100[…]/ml of streptomycin. Cell lysate was obtained from the HEK293 cells by using RIPA buffer containing a protease inhibitor (aprotinin, leupeptin or phenylmethyl sulfonyl fluoride), and GCP-II protein was separated with 8% SDS-PAGE to examine the expression of GCP-II.
HEK293 cells transfected with NEP and IDE plasmids were used as a positive control and the cells transfected with mock vector were used as a negative control. The expressions of human GCP-II and NEP in the transfected HEK293 cells were investigated by Western blot analysis using anti-GCP-II antibody (MAB544B, Maine Biotechnology) or anti-NEP antibody (L-CD10-270, Novocastra) respectively (FIG. 1C).

The subject of another series is Aβ40. In words: Aβ degradation in primary cortical cells over-expressing GCP-II by lenti-virus (ELISA). In kind it is cell-based, rat. The note with it: infected by 10, 20 and 50 MOI for three days, Aβ40 added for 20 hours. From the text:
To investigate whether Aβ degradation effect of GCP-II was still observed in cortical cells or not, GCP-II was over-expressed in primary cortical cells by using lenti-virus, and then the level of Aβ degradation was investigated.
To investigate whether the expression of GCP-II can degrade Aβ in cortical cells, GCP-II was over-expressed in the primary cortical cells by using lenti-virus, followed by investigation of Aβ degradation (FIG. 2). The primary cortical cells were separated and cultured from E16 rats (Sprague-Dawley rats). To prevent non-neuronal cells, which took less than 10% in the culture cells, from spreading, the cells were transferred and further cultured in a 24 well plate (1×10^5 cells/well) containing 5-fluoro-2-deoxyuridine from the 3-6 days after the first culture. To prepare lenti-virus expressing GCP-II, GCP-II was inserted into pLentiH1.2 vector (named ‘pLentiH1.2-GCPII’, which was then introduced into 293T cells along with pLentiH1.2-GCP-II and packaging construct and envelope construct. Forty eight hours later, the concentration of the virus released in the medium was measured.
The primary cortical cells were infected with Lenti-GCP-II for three days, to which Aβ40 was added for 20 hours. Then, the level of Aβ remaining in the medium was measured by ELISA as explained in Example 1. […]

The next series has as its system endogenous Aβ42. Nature of the series: Degradation of endogenous Aβ from swAPP stable HEK293 cells by rGCP-II (ELISA). In kind it is biochemical, human. The note with it: #2 colony of swAPP stable cells, 0, 0.5, 2.5 and 10[…]/μL of rGCP-II. From the text:
To investigate whether human GCP-II can actually degrade endogenous Aβ a cell line stably expressing ^swAPP (Swedish mutant APP) gene involved in the over-production of Aβ was constructed. For this construction, ^swAPP was introduced into HEK293 cells, followed by selection with G418. The recovered medium was reacted with rGCP-II protein and then Aβ remaining unreacted in the medium was quantified by ELISA (FIG. 8).
The concentration of Aβ42 and the expression level of APP were used as standards for the selection of ^swAPP stable cell colonies. […] As a result, the level of endogenous Aβ42 was decreased. From the above result, it was confirmed that rGCP-II is able to degrade physiologically generated (endogenous) Aβ alike (FIG. 8B).

Series [2] concerns Aβ monomer and oligomer (multimer). In words: Degradation of Aβ monomer and multimer by rGCP-II (Western blotting). In kind it is biochemical. The note with it: Aβ matured for 7 days, reacted 20 hours, increasing GCP-II concentration. The procedure: Western blotting was performed using anti-Aβ antibody (6E10) more than 5 times (FIG. 9A) and the results were quantified by an image program (Image J program, NIH, USA) (FIG. 9B).
(In western blotting, separated proteins are transferred to a membrane and probed.)

For series [3], the system named is soluble Aβ40 and insoluble Aβ40. In words: Degradation of soluble and insoluble Aβ from cerebral cortex by rGCP-II. In kind it is biochemical. The procedure:
The cerebral cortex was homogenized in 50 mM Tris-HCl (TBS) containing protease inhibitor cocktail (pH 7.6), followed by centrifugation at 4° C. with 100,000 g for 40 minutes. The supernatant was defined as a soluble fragment. The pellet was sonicated in 6 M guanidine-HCl solution containing protease inhibitor cocktail, which was defined as an insoluble fragment. The concentrations of each soluble Aβ and insoluble Aβ were measured.
The soluble Aβ or insoluble Aβ was co-cultured with rGCP-II.

A short description of series [4]: Enzyme activity (Km) of purified rGCP-II, [3H] glutamate release. The class given is biochemical. Particulars: 0.002-2 μM substrate, 37° C. The procedure:
The enzyme activity of rGCP-II was saturated from 1.0 μM of N-acetyl-L-aspartyl-L-[3,4-^3H] and as a result, the Km value of rGCP-II was determined to be 0.5 μM.

[5] abbreviates: GCP-II over-expressing HEK293 cells, compared with mock vector.

T1 sequence (O35409 whole entry): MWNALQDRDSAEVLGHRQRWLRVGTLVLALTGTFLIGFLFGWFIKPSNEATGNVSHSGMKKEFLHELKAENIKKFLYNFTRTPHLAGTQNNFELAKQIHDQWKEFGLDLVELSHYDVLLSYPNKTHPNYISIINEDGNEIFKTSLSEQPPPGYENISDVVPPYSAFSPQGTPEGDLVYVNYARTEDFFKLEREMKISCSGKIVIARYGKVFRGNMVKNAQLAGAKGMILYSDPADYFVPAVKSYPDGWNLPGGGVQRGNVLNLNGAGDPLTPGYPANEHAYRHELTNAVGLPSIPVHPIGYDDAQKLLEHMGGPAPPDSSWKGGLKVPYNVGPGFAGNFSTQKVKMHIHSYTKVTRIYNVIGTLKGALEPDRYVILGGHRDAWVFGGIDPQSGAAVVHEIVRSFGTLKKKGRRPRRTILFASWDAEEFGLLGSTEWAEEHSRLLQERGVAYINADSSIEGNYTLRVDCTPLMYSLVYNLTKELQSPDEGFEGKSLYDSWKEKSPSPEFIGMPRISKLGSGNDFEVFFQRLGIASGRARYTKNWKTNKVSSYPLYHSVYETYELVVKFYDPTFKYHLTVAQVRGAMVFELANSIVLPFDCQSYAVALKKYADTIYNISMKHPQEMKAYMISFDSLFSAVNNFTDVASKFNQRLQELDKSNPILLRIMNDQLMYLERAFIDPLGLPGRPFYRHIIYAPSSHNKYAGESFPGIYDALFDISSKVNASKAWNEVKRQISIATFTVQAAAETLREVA

In the case of `O=C(O)CCC(CP(=O)(O)O)C(=O)O` (stereo not shown) [2-PMPA], the “reduction of GCP-II activity in brain” value at GCP-II (transgenic mouse) is “about 30%”; at GCP-II (wild type mouse), “about 50%”. Also, the “increase of yield of Aβ42 in cerebral cortex versus control” value with Aβ40 and Aβ42 is on record as “about 30%”. Besides, the “yield of Aβ40 in cerebral cortex versus control” value with Aβ40 and Aβ42 is on record as “no significantly difference”.
Regarding “GCP-II: transmembrane metalloproteinase glutamate carboxypeptidase II (SEQ. ID. NO: 2), over-expressed in cells from pHA-GCPII or pMyc-GCPII”, the “degradation of ACTH” value in series [1] is recorded as “not degraded”. Moreover, in the series on amylin, the “degradation of amylin (MALDI-TOF peaks)” value is “two peaks at 1500 and 2000”. The “degradation of insulin β-chain” value with insulin β-chain is on record as “not degraded”. Moreover, in the series with synthetic Aβ40 or Aβ42 (setting [5]), the “decrease of Aβ40 level in cell culture medium” value was 30% and the “decrease of Aβ42 level in cell culture medium” value is reported as 30%. The “level of Aβ remaining in the culture medium” value in the series with synthetic Aβ40 or Aβ42 (HEK293 cells expressing GCP-II, 20 hours after addition of Aβ, compared with cells transfected with mock vector) is 60±5%. For the same compound, the “Aβ reduction in primary cortical cells” value in the series on Aβ40 is “more than 90%”.
Turning to “rGCP-II: recombinant GCP-II protein expressed in insect cells (Sf21) with baculovirus vector and purified on a Ni-chelating column”, the “level of endogenous Aβ42” value in the series on endogenous Aβ42 is listed as “decreased”. Besides, the “degradation of Aβ oligomer versus monomer” value in [2] is “reduced faster than Aβ monomer”. Also, the “reduction of insoluble Aβ40” value in series [3] (insoluble fragment of cerebral cortex co-cultured with rGCP-II) is on record as 35%. In addition, the “reduction of soluble Aβ40” value in [3] (soluble fragment of cerebral cortex co-cultured with rGCP-II) amounted to 20%. Also, in series [4], the Michaelis constant (Km) is 0.5 µM.
